# Source: ChEMBL document CHEMBL5661983, “The selective anaplastic lymphoma receptor tyrosine kinase inhibitor ASP3026 induces tumor regression and prolongs survival in non-small cell lung cancer model mice” (Mol Cancer Ther, 2014)
# What was measured:
# [1] = molecular target: T1, ALK tyrosine kinase receptor (Homo sapiens, UniProt Q9UM73); assay: Inhibition of ALK phosphorylation in human NCI-H2228 cells assessed as phosphorylated ALK level at 1000 nmol/L measured after 4 hrs by Western blot analysis relative to control; assay type: cell-based; parameters: scale not given: the % may be the effect or the level left
# T1 sequence (Q9UM73 19-1620 limits assumed): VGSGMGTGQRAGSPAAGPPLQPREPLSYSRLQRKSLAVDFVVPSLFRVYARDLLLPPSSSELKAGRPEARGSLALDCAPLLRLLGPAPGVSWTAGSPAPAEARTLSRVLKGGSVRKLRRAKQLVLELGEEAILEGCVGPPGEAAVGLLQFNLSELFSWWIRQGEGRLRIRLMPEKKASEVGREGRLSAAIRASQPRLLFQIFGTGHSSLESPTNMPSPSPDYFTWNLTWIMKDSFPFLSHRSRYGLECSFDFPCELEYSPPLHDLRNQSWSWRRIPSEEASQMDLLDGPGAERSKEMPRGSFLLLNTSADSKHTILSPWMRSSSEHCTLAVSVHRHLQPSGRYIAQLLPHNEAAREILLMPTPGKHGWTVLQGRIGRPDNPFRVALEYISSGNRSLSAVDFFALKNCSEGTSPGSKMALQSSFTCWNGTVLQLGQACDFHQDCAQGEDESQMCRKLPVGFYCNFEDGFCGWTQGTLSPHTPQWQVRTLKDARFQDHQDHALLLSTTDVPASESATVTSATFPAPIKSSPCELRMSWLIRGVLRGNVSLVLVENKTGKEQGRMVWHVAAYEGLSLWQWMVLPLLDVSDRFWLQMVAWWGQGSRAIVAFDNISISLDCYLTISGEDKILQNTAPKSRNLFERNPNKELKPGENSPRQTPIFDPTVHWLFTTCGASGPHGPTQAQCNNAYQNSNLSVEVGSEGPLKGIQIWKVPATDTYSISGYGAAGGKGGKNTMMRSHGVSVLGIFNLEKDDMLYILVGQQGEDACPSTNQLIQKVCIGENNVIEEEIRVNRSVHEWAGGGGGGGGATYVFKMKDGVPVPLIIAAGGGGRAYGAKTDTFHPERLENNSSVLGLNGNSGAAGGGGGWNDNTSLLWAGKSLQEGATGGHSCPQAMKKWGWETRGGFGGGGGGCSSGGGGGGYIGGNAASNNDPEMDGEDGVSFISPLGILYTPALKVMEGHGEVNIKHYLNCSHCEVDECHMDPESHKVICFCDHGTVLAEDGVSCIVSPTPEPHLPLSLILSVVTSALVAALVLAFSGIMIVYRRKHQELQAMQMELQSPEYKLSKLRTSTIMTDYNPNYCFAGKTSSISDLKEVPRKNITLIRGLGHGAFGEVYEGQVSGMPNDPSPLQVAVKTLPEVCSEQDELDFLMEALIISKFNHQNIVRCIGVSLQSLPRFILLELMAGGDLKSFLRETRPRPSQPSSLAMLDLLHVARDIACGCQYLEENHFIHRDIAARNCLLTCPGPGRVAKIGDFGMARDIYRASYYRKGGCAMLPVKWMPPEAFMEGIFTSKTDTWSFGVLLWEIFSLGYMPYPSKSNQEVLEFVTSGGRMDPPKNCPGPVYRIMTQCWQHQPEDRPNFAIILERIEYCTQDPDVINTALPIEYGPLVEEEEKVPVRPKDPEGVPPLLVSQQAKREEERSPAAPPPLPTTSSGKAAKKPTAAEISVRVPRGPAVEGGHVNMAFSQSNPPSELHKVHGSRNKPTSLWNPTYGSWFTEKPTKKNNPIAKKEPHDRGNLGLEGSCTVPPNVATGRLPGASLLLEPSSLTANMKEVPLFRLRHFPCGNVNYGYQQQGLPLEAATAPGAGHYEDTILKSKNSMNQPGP
# [2] = molecular target: T1, ALK tyrosine kinase receptor; assay: Inhibition of ALK in human NCI-H2228 cells assessed as reduction in AKT phosphorylation by measuring phosphorylated AKT level at 10 nmol/L measured after 4 hrs by Western blot analysis relative to control; assay type: cell-based; parameters: scale not given: the % may be the effect or the level left
# [3] = molecular target: T1, ALK tyrosine kinase receptor; assay: Inhibition of ALK in human NCI-H2228 cells assessed as reduction in AKT phosphorylation by measuring phosphorylated AKT level at 100 nmol/L measured after 4 hrs by Western blot analysis relative to control; assay type: cell-based; parameters: scale not given: the % may be the effect or the level left
# [4] = molecular target: T1, ALK tyrosine kinase receptor; assay: Inhibition of ALK in human NCI-H2228 cells assessed as reduction in ERK phosphorylation by measuring phosphorylated ERK level at 10 nmol/L measured after 4 hrs by Western blot analysis relative to control; assay type: cell-based; parameters: scale not given: the % may be the effect or the level left
# [5] = molecular target: T1, ALK tyrosine kinase receptor; assay: Inhibition of ALK in human NCI-H2228 cells assessed as reduction in ERK phosphorylation by measuring phosphorylated ERK level at 1000 nmol/L measured after 4 hrs by Western blot analysis relative to control; assay type: cell-based; parameters: scale not given: the % may be the effect or the level left
# [6] = molecular target: NPM/ALK (Nucleophosmin/ALK tyrosine kinase receptor) (Homo sapiens, UniProt Q9UM73)
# Chain of NPM/ALK (Nucleophosmin/ALK tyrosine kinase receptor) (Q9UM73 whole entry): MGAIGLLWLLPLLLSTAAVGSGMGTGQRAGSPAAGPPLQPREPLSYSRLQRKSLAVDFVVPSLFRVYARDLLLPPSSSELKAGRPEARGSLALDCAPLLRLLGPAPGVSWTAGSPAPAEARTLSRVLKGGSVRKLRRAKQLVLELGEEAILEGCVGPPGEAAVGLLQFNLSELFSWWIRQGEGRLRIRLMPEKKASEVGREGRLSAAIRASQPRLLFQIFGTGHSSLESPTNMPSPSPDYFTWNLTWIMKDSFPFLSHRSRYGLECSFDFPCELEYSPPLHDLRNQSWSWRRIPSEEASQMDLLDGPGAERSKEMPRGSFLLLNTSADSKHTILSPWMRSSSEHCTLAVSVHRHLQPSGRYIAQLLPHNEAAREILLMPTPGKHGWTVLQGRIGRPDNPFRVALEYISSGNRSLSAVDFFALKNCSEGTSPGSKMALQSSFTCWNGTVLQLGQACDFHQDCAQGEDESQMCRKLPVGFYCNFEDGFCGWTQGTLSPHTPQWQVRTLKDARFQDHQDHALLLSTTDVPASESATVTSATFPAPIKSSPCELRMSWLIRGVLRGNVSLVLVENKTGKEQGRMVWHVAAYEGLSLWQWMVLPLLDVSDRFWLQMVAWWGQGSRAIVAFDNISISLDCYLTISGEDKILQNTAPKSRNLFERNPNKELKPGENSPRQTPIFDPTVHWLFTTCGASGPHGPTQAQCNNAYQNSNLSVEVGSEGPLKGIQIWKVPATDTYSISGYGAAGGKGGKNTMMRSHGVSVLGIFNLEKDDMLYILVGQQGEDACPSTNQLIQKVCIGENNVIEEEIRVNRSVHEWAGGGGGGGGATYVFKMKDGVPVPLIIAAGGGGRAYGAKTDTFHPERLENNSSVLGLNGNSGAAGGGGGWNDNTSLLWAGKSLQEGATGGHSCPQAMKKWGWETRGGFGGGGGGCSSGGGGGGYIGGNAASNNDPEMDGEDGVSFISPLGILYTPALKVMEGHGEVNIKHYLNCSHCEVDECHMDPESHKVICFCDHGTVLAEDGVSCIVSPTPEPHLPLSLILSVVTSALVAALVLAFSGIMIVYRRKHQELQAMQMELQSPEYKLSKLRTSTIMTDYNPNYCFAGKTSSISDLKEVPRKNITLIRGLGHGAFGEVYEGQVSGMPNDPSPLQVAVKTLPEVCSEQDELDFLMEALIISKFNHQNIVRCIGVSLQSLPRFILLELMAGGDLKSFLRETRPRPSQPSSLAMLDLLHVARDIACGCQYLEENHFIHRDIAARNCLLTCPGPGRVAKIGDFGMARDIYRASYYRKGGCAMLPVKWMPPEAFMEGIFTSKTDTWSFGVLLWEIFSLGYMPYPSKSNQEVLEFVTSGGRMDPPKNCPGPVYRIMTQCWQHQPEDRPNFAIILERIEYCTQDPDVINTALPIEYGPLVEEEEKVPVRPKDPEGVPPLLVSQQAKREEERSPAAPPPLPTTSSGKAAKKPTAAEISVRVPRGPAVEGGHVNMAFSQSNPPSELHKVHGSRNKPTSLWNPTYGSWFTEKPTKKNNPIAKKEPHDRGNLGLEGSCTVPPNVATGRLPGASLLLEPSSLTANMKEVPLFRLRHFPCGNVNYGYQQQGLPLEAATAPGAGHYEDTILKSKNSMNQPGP
# Chain of NPM/ALK (Nucleophosmin/ALK tyrosine kinase receptor) (P06748 whole entry, further chain): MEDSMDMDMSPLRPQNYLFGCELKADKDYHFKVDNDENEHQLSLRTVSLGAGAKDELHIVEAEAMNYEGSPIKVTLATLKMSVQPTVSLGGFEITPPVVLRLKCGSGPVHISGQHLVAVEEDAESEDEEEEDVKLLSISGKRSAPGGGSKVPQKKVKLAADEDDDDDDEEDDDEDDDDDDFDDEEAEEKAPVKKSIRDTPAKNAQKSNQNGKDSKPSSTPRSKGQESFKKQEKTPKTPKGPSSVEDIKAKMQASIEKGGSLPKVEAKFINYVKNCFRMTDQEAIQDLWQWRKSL
# NCI-H2228 = assay: Antitumor activity against human NCI-H2228 cells xenografted in NOD.CB17-Prkdcscid/J mouse assessed as tumor growth inhibition at 1 mg/kg, po administered once daily for 2 weeks relative to control; assay type: functional; settings: NCI-H2228, 336 h, read-out: TGI
# [7] = Tmax in human NCI-H2228 cell xenografted NOD.CB17-Prkdcscid/J mouse plasma at 3 mg/kg/day for 5 days by HPLC-MS analysis; assay type: ADME, organism-based; settings: route po, time 5 day
# [8] = AUC (0 to 24 hrs) in human NCI-H2228 cell xenografted NOD.CB17-Prkdcscid/J mouse plasma at 1 mg/kg/day for 5 days by HPLC-MS analysis; assay type: ADME, organism-based; settings: route po, time 5 day
# [9] = AUC (0 to 24 hrs) in human NCI-H2228 cell xenografted NOD.CB17-Prkdcscid/J mouse plasma at 10 mg/kg/day for 5 days by HPLC-MS analysis; assay type: ADME, organism-based; settings: route po, time 5 day
# [10] = Cmax in human NCI-H2228 cell xenografted NOD.CB17-Prkdcscid/J mouse tumor at 1 mg/kg/day for 5 days by HPLC-MS analysis; assay type: ADME, organism-based, Neoplasm; settings: route po, time 5 day
# [11] = Cmax in human NCI-H2228 cell xenografted NOD.CB17-Prkdcscid/J mouse tumor at 10 mg/kg/day for 5 days by HPLC-MS analysis; assay type: ADME, organism-based, Neoplasm; settings: route po, time 5 day
# [12] = Tmax in human NCI-H2228 cell xenografted NOD.CB17-Prkdcscid/J mouse tumor at 1 mg/kg/day for 5 days by HPLC-MS analysis; assay type: ADME, organism-based, Neoplasm; settings: route po, time 5 day
# [13] = Tmax in human NCI-H2228 cell xenografted NOD.CB17-Prkdcscid/J mouse tumor at 10 mg/kg/day for 5 days by HPLC-MS analysis; assay type: ADME, organism-based, Neoplasm; settings: route po, time 5 day
# [14] = Ratio of drug level in tumor to plasma of hEML4-ALK transgenic C57BL/6J mouse at 10 to 100 mg/kg, po administered daily for 10 days and measured 24 hrs post-last dose; assay type: ADME, organism-based; settings: dose 10-100 mg/kg, time 11 day
# [15] = Toxicity in human NCI-H2228 cell xenografted NOD.CB17-Prkdcscid/J mouse assessed as change in body weight at 10 mg/kg, po administered once daily for 5 days in presence of pemetrexed; assay type: organism-based; settings: in vivo, 120 h, time 5 day
# [16] = Selectivity ratio of IC50 for inhibition of EML4-ALK L1196M mutant (unknown origin) expressed in mouse 3T3 cells assessed as growth inhibition to IC50 for Inhibition of EML4-ALK (unknown origin) expressed in mouse 3T3 cells assessed as growth inhibition; parameters: species or system Homo sapiens; settings: condition non-small cell lung carcinoma
# Ephrin type-A receptor 6 = Ephrin type-A receptor 6 (Homo sapiens, UniProt Q9UF33)
# [17] = molecular target: Macrophage-stimulating protein receptor (Homo sapiens, UniProt Q04912)
# Chain of Macrophage-stimulating protein receptor (Q04912 25-304 limits assumed): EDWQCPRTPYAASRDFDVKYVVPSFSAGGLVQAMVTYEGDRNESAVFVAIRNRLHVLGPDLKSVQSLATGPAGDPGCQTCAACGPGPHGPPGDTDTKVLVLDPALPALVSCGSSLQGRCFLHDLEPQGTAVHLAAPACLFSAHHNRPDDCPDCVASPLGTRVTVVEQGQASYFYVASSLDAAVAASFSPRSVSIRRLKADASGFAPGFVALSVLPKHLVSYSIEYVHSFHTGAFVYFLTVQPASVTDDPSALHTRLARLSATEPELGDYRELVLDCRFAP
# Chain of Macrophage-stimulating protein receptor (Q04912 310-1400 limits assumed): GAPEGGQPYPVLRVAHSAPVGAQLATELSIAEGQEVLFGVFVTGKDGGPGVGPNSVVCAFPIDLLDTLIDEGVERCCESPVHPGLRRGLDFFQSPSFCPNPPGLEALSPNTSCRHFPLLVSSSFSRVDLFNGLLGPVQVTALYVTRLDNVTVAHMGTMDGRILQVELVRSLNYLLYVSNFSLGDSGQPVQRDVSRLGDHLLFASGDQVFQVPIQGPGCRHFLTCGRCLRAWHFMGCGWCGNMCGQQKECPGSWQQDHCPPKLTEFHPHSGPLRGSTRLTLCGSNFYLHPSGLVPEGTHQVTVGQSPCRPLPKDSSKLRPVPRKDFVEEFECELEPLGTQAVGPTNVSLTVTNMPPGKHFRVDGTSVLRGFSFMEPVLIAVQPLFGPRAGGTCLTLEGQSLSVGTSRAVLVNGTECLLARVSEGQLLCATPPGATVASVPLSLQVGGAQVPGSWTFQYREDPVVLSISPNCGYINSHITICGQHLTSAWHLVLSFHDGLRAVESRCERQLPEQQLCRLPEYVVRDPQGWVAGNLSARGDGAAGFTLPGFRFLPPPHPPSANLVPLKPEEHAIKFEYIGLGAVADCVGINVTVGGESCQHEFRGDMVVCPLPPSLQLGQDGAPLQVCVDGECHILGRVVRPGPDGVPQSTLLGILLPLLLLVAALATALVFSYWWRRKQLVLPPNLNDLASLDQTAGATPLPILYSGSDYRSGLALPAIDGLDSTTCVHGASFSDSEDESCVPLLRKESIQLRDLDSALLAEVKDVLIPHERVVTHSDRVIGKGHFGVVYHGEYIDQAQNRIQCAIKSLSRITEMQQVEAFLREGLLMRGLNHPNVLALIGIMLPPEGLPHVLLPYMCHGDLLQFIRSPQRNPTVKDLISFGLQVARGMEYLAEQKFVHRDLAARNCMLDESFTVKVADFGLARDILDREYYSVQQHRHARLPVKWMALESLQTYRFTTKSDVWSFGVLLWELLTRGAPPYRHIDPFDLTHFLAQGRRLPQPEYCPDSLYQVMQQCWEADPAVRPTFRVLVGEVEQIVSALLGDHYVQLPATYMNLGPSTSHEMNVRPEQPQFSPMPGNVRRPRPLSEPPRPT
# in vivo = settings: NOD.CB17-Prkdcscid/J, mouse, tumour, po, 10 mg/kg
smiles,measurement,setting,value
COc1cc(N2CCC(N3CCN(C)CC3)CC2)ccc1Nc1ncnc(Nc2ccccc2S(=O)(=O)C(C)C)n1 [ASP-3026],Activity,[1],9%
same,Activity,[2],120%
same,Activity,[3],56%
same,Activity,[4],101%
same,Activity,[5],36%
same,IC50,[6],6.8 nM
same,inhibition in vivo at 1 mg/kg,NCI-H2228,69%
same,Tmax,[7],4 h
same,AUC at 120 h,[8],630 ng·h/mL
same,AUC at 120 h,[9],5990 ng·h/mL
same,Cmax,[10],850 ng/g
same,Cmax,[11],8990 ng/g
same,Tmax,[12],4 h
same,Tmax,[13],4 h
same,Kp at 264 h,[14],> 100
same,Activity,[15],Non-Toxic
same,Ratio IC50,[16],3.9
same,IC50,Ephrin type-A receptor 6,> 1000 nM
same,IC50,[17],> 1000 nM
same,Kp at 120 h,in vivo,20
